Thermal stability z-score data for 43 targets are collected here from the supplement of paper PMC12463676, “Small-molecule dissolution of stress granules by redox modulation benefits ALS models” (Nature Chemical Biology, 2025).

Compound in one assay: NC(=O)CCCCC1CCSS1 [lipoamide]
Put plainly: thermal stability z-score vs DMSO; higher = more thermally stabilized by treatment. As to conditions: HeLa, lipoamide concentration 100 µM. The method, then: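 Cellular thermal proteome profiling in HeLa cells. Cells were treated with 100 µM lipoamide for 1 h, with or without 1 mM arsenate for a further 1 h, then heated to ten temperatures (37-66.3 °C), and soluble protein was quantified by TMT mass spectrometry relative to 0.1% DMSO controls. The thermal stability score (sum of log2 fold changes minus the abundance score) was transformed to a z-score; mean of n = 3 experiments.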

Compound in the next assay: O=[As]([O-])(O)O.[K+] [potassium arsenate]
The description is as above. As to conditions: HeLa; arsenate concentration 1 mM. The method, then:
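Cellular thermal proteome profiling in HeLa cells treated with 1 mM arsenate for 1 h (DMSO pretreatment), heated to ten temperatures (37-66.3 °C). Soluble protein was quantified by TMT mass spectrometry relative to DMSO controls; the thermal stability score was transformed to a z-score; mean of n = 3 experiments.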

[1] abbreviates: arsenate co-treatment: 1 mM arsenate 1 h.
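Further: each temperature applied for 3 min, abundance score taken as mean log2 fold change at the two lowest temperatures, z-score obtained by mean subtraction and division by SD.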

Chain of UniProt Q5SVZ6 (Q5SVZ6 whole entry): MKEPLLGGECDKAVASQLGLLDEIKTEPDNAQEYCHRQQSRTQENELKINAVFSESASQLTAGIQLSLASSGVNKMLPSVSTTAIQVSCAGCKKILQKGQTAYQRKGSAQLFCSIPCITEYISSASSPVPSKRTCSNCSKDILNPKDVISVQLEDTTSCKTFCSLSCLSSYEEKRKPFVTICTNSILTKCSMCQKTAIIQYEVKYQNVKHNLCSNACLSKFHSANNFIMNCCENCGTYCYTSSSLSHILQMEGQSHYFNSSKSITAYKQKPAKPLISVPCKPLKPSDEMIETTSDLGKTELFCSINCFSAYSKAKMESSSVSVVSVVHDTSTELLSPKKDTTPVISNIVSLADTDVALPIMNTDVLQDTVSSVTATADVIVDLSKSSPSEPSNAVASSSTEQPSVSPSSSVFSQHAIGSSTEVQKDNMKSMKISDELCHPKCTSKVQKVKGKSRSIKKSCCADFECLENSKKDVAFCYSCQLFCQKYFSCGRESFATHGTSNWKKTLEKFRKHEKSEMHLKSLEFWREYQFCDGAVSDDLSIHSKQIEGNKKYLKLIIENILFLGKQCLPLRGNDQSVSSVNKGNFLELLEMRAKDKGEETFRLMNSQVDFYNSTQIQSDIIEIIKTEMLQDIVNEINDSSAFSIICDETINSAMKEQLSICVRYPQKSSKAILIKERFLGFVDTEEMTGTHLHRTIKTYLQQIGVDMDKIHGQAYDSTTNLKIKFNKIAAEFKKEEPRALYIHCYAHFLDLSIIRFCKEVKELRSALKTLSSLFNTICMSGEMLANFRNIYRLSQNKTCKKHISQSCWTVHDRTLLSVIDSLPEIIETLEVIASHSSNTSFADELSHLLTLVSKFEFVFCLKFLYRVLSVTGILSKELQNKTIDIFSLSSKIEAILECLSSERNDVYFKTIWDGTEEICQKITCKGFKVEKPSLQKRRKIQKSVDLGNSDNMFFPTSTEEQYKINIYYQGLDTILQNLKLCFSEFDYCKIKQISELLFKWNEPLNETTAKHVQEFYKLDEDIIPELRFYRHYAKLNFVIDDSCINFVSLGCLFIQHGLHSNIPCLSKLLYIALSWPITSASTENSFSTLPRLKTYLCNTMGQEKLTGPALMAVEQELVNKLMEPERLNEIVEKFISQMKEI
Chain of UniProt Q9UQR1 (Q9UQR1 whole entry): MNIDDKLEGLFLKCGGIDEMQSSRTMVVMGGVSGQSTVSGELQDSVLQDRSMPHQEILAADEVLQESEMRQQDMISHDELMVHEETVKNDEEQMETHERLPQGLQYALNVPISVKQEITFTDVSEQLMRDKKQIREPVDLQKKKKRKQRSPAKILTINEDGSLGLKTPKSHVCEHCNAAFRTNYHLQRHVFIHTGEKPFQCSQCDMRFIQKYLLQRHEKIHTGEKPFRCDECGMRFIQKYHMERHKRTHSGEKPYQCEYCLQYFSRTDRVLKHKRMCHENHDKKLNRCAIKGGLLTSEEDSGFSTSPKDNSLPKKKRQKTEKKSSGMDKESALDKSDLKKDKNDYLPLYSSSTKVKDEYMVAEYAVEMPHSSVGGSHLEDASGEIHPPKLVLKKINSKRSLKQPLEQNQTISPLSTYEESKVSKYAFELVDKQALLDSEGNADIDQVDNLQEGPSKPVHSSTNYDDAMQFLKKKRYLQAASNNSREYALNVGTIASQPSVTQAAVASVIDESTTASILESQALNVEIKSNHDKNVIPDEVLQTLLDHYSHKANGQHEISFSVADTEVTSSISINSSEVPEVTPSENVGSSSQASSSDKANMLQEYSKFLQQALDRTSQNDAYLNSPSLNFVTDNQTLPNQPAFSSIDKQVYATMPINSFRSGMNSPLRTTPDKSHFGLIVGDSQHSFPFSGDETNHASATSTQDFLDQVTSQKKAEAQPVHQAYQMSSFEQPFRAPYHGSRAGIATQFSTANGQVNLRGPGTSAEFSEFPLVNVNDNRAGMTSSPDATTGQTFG
Chain of UniProt Q9NWK9 (Q9NWK9 whole entry): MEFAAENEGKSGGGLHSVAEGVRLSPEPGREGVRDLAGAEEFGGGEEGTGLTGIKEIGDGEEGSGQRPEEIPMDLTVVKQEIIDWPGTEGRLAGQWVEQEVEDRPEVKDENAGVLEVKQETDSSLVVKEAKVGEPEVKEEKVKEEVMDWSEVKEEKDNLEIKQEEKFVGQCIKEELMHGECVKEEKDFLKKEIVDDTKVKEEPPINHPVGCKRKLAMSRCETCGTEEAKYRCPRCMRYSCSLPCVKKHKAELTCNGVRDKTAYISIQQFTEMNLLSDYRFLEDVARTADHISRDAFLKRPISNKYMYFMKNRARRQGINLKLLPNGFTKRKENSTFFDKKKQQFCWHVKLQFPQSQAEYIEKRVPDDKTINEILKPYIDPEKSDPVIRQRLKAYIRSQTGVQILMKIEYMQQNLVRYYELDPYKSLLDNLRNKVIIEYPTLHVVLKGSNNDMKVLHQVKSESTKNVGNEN
Chain of UniProt Q9UL40 (Q9UL40 whole entry): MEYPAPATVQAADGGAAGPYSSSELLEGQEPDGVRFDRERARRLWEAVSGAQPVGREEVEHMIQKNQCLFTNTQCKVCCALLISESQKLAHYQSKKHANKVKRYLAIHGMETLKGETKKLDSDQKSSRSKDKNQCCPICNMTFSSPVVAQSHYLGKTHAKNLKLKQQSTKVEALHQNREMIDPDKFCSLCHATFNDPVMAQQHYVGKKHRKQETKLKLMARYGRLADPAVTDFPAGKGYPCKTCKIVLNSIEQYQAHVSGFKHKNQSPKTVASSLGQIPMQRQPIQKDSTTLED
Chain of UniProt O75312 (O75312 whole entry): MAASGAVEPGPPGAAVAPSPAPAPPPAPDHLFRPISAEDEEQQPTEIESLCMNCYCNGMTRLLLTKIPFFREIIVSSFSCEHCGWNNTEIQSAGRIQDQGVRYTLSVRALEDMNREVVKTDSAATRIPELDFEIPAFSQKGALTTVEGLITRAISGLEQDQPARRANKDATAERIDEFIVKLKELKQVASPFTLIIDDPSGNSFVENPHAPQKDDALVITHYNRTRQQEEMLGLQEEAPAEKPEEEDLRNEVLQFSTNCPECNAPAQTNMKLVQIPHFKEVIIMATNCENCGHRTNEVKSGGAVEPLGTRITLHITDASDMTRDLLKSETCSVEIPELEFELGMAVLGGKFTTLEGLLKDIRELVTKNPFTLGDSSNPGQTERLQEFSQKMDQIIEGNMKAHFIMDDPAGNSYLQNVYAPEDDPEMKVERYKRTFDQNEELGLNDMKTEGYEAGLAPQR
Chain of UniProt Q8NHG8 (Q8NHG8 whole entry): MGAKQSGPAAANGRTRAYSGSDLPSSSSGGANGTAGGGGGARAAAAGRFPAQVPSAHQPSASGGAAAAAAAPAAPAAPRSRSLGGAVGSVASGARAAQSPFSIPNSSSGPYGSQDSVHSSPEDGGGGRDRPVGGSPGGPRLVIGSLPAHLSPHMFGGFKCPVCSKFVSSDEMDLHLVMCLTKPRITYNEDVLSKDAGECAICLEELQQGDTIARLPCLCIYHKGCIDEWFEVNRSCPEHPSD
Chain of UniProt Q96NB3 (Q96NB3 whole entry): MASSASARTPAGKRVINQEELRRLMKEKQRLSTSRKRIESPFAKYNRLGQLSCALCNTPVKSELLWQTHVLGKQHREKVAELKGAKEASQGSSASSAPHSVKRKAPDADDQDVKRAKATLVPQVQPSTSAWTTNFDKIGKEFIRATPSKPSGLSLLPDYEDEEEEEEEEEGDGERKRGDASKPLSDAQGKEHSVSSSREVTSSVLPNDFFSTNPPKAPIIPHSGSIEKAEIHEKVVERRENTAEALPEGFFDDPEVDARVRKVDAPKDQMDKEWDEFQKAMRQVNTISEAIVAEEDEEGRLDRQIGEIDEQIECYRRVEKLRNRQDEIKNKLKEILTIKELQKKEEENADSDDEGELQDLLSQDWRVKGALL
Chain of UniProt O43264 (O43264 whole entry): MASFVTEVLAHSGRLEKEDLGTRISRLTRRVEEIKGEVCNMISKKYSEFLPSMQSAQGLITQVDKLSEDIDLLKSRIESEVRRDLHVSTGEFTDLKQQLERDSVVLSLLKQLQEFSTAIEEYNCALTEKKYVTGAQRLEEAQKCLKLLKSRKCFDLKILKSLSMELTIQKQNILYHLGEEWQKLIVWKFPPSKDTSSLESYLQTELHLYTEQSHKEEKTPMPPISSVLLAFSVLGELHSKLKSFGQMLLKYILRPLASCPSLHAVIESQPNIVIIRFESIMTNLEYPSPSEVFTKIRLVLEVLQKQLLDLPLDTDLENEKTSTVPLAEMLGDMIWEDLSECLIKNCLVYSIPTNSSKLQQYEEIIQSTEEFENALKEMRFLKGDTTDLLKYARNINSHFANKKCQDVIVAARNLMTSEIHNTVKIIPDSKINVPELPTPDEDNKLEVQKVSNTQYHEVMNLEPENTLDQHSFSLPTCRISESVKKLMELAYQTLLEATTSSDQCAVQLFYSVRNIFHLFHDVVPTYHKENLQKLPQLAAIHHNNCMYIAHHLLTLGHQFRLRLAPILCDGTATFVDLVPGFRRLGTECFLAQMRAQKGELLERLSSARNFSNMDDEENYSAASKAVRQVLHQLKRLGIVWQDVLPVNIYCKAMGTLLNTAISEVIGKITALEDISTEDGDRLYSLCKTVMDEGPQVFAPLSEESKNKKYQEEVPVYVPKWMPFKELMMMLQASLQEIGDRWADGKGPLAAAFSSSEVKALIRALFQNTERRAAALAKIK
Chain of UniProt Q9NRM2 (Q9NRM2 whole entry): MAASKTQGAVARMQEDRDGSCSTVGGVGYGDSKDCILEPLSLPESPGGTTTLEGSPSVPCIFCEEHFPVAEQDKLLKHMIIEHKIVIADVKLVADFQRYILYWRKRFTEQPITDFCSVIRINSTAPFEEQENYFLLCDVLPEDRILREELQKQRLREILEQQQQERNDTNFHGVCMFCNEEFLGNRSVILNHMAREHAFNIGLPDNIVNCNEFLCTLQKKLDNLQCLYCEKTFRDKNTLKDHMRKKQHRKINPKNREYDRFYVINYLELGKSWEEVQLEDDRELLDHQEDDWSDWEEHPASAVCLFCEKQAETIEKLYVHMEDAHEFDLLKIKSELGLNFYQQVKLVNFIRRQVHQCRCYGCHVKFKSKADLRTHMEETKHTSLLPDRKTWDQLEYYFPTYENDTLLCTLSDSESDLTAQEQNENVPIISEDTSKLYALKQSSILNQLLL

Consider ZMPSTE24 (UniProt O75844), for which the thermal stability z-score was 0.105 with lipoamide (setting [1]), -0.234 with lipoamide (arsenate co-treatment: none) and 0.325 with potassium arsenate.

For the target ZMYM1 (UniProt Q5SVZ6), the thermal stability z-score in the assay with lipoamide (setting [1]) is 0.0919; with lipoamide (arsenate co-treatment: none) it was 0.0471; with potassium arsenate it was -0.798.

Regarding ZMYM2 (UniProt Q9UBW7), the thermal stability z-score with lipoamide (setting [1]) was -0.105; with lipoamide (arsenate co-treatment: none), -0.0436; in the assay with potassium arsenate it was -0.802.

In the case of ZMYM3 (UniProt Q14202), the results for the thermal stability z-score with lipoamide (setting [1]), with lipoamide (arsenate co-treatment: none) and with potassium arsenate were 0.69, 0.308 and -1.2, respectively.

Regarding ZMYM4 (UniProt Q5VZL5), the values for the thermal stability z-score with lipoamide (setting [1]), in the assay with lipoamide (arsenate co-treatment: none) and with potassium arsenate were -0.347, 0.0509 and -0.646, respectively.

On to ZNF24 (UniProt P17028), for which the figures for the thermal stability z-score with lipoamide (setting [1]), with lipoamide (arsenate co-treatment: none) and in the assay with potassium arsenate were 0.0764, -0.217 and -0.114, respectively.

For ZNF143 (UniProt P52747), the values for the thermal stability z-score with lipoamide (setting [1]), with lipoamide (arsenate co-treatment: none) and in the assay with potassium arsenate were -0.135, -0.0231 and 0.0928, respectively.

ZNF148 (UniProt Q9UQR1): the values for the thermal stability z-score in the assay with lipoamide (setting [1]), with lipoamide (arsenate co-treatment: none) and in the assay with potassium arsenate were 0.37, 0.389 and 0.415, respectively.

As to ZNF207 (UniProt O43670), the thermal stability z-score in the assay with lipoamide (setting [1]) was 0.132; in the assay with lipoamide (arsenate co-treatment: none), -0.22; in the assay with potassium arsenate it was 0.167.

As to ZNF217 (UniProt O75362), the thermal stability z-score in the assay with lipoamide (setting [1]) was -0.058; with lipoamide (arsenate co-treatment: none), 0.343; in the assay with potassium arsenate, -0.589.

With ZNF277 (UniProt Q9NRM2), the thermal stability z-score in the assay with lipoamide (setting [1]) is 0.365; in the assay with lipoamide (arsenate co-treatment: none) it was 0.166; in the assay with potassium arsenate, -0.515.

For ZNF281 (UniProt Q9Y2X9), the thermal stability z-score with lipoamide (setting [1]) is -0.165; with lipoamide (arsenate co-treatment: none), -0.214; in the assay with potassium arsenate, 0.133.

Regarding ZNF326 (UniProt Q5BKZ1), the results for the thermal stability z-score with lipoamide (setting [1]), with lipoamide (arsenate co-treatment: none) and in the assay with potassium arsenate were -0.0719, 0.0989 and 0.0996, respectively.

Turning to ZNF330 (UniProt Q9Y3S2), the thermal stability z-score with lipoamide (setting [1]) is -0.367; in the assay with lipoamide (arsenate co-treatment: none), -0.417; in the assay with potassium arsenate it was -0.558.

In the case of ZNF346 (UniProt Q9UL40), the thermal stability z-score is -0.17 with lipoamide (setting [1]), 0.0809 with lipoamide (arsenate co-treatment: none) and 0.04 with potassium arsenate.

With ZNF384 (UniProt Q8TF68), the thermal stability z-score is -0.017 with lipoamide (setting [1]), 0.00673 in the assay with lipoamide (arsenate co-treatment: none) and -0.241 with potassium arsenate.

Regarding ZNF428 (UniProt Q96B54), the values for the thermal stability z-score in the assay with lipoamide (setting [1]), with lipoamide (arsenate co-treatment: none) and in the assay with potassium arsenate were 1.64, 2.65 and 1.85, respectively.

As for ZNF451 (UniProt Q9Y4E5), the thermal stability z-score with lipoamide (setting [1]) worked out at 0.0272; in the assay with lipoamide (arsenate co-treatment: none), 0.0565; with potassium arsenate, 0.171.

Take ZNF579 (UniProt Q8NAF0): the thermal stability z-score was -0.34 with lipoamide (setting [1]), -0.434 in the assay with lipoamide (arsenate co-treatment: none) and 0.155 with potassium arsenate.

As to ZNF593 (UniProt O00488), the values for the thermal stability z-score with lipoamide (setting [1]), in the assay with lipoamide (arsenate co-treatment: none) and with potassium arsenate were 4.3, 2.19 and -6.67, respectively.

With ZNF598 (UniProt Q86UK7), the thermal stability z-score with lipoamide (setting [1]) is 0.0109; in the assay with lipoamide (arsenate co-treatment: none) it was -0.407; with potassium arsenate, -0.82.

Turning to ZNF609 (UniProt O15014), the thermal stability z-score in the assay with lipoamide (setting [1]) is 0.0184; in the assay with lipoamide (arsenate co-treatment: none), -0.0967; with potassium arsenate, -0.0848.

As for ZNF622 (UniProt Q969S3), the figures for the thermal stability z-score in the assay with lipoamide (setting [1]), with lipoamide (arsenate co-treatment: none) and with potassium arsenate were -0.153, -0.393 and 1.39, respectively.

For ZNF629 (UniProt Q9UEG4), the values for the thermal stability z-score with lipoamide (setting [1]), with lipoamide (arsenate co-treatment: none) and with potassium arsenate were 0.162, -0.369 and -0.114, respectively.

For ZNF638 (UniProt Q14966), the values for the thermal stability z-score in the assay with lipoamide (setting [1]), with lipoamide (arsenate co-treatment: none) and with potassium arsenate were 0.83, 0.27 and -0.032, respectively.

Take ZNF668 (UniProt Q96K58): the thermal stability z-score with lipoamide (setting [1]) is 0.0589; with lipoamide (arsenate co-treatment: none), -0.155; in the assay with potassium arsenate, -0.073.

ZNF703 (UniProt Q9H7S9): the values for the thermal stability z-score with lipoamide (setting [1]), with lipoamide (arsenate co-treatment: none) and with potassium arsenate were 0.173, 0.148 and 0.019, respectively.

Turning to ZNF706 (UniProt Q9Y5V0), the thermal stability z-score with lipoamide (setting [1]) came to 1.04; with lipoamide (arsenate co-treatment: none), 0.371; with potassium arsenate it was 0.0846.

Turning to ZNF787 (UniProt Q6DD87), the thermal stability z-score amounted to 0.853 with lipoamide (setting [1]), 1.17 with lipoamide (arsenate co-treatment: none) and 0.223 with potassium arsenate.

For the target ZNF830 (UniProt Q96NB3), the thermal stability z-score is 1.38 with lipoamide (setting [1]), 0.482 in the assay with lipoamide (arsenate co-treatment: none) and -0.642 in the assay with potassium arsenate.

On to ZNFX1 (UniProt Q9P2E3), for which the thermal stability z-score in the assay with lipoamide (setting [1]) was 0.113; with lipoamide (arsenate co-treatment: none), 1.85; with potassium arsenate it was 2.01.

Regarding ZNHIT2 (UniProt Q9UHR6), the thermal stability z-score is -0.047 in the assay with lipoamide (setting [1]), 0.147 with lipoamide (arsenate co-treatment: none) and -0.28 in the assay with potassium arsenate.

With ZNHIT6 (UniProt Q9NWK9), the results for the thermal stability z-score in the assay with lipoamide (setting [1]), with lipoamide (arsenate co-treatment: none) and with potassium arsenate were 1.08, 0.924 and 0.0739, respectively.

As for ZNRF2 (UniProt Q8NHG8), the thermal stability z-score in the assay with lipoamide (setting [1]) is -0.729; with lipoamide (arsenate co-treatment: none), -0.885; with potassium arsenate it was -2.6.

Take ZPR1 (UniProt O75312): the results for the thermal stability z-score with lipoamide (setting [1]), with lipoamide (arsenate co-treatment: none) and in the assay with potassium arsenate were 0.753, -0.187 and -1.09, respectively.

With ZRANB2 (UniProt O95218), the results for the thermal stability z-score with lipoamide (setting [1]), with lipoamide (arsenate co-treatment: none) and in the assay with potassium arsenate were -0.755, -0.097 and -0.286, respectively.

For the target ZSWIM8 (UniProt A7E2V4), the thermal stability z-score with lipoamide (setting [1]) was 0.028; with lipoamide (arsenate co-treatment: none), 0.0796; with potassium arsenate it was -0.0789.

Regarding ZW10 (UniProt O43264), the figures for the thermal stability z-score with lipoamide (setting [1]), with lipoamide (arsenate co-treatment: none) and with potassium arsenate were -0.0261, -0.137 and 0.692, respectively.

As to ZWILCH (UniProt Q9H900), the thermal stability z-score is -0.3 with lipoamide (setting [1]), -0.512 with lipoamide (arsenate co-treatment: none) and -0.55 in the assay with potassium arsenate.

With ZWINT (UniProt O95229), the thermal stability z-score with lipoamide (setting [1]) is 0.0176; in the assay with lipoamide (arsenate co-treatment: none) it was -0.0608; with potassium arsenate, 0.0525.

Regarding ZYG11B (UniProt Q9C0D3), the results for the thermal stability z-score with lipoamide (setting [1]), in the assay with lipoamide (arsenate co-treatment: none) and with potassium arsenate were -0.0727, -0.16 and -0.142, respectively.

With ZYX (UniProt Q15942), the thermal stability z-score in the assay with lipoamide (setting [1]) is 0.568; with lipoamide (arsenate co-treatment: none), 0.672; with potassium arsenate, -0.00636.

Consider ZZEF1 (UniProt O43149), for which the results for the thermal stability z-score in the assay with lipoamide (setting [1]), in the assay with lipoamide (arsenate co-treatment: none) and in the assay with potassium arsenate were 0.044, 0.201 and 0.0396, respectively.
